Publication PMC12217463, “Functional and structural analyses of amino acid sequence variation in PDC β-lactamase reveal different mechanistic pathways toward cefiderocol resistance in Pseudomonas aeruginosa” (Antimicrobial Agents and Chemotherapy, 2025)
≈ marks a conversion by molar mass, not a printed value.

How the values were obtained:
PAO1 + blaPDC A200T = test: MIC, broth microdilution; assay type: cell-based; conditions: Pseudomonas aeruginosa
From the text: (§1) We took advantage of a previously constructed and characterized laboratory collection of recombinant P. aeruginosa PAO1 isolates expressing different blaPDC variants, but specifically enriched for this work with additional variants, following the previously described methodology ([17]). […] The final collection comprised 40 recombinant isolates (20 in PAO1 and 20 in PAO ΔpiuC) producing the wild-type PDC-1 variant from PAO1 and 19 derivatives carrying specific amino acid substitutions previously associated with the development of resistance to ceftazidime/avibactam, ceftolozane/tazobactam, or cefiderocol: T70I, F121L, P153L, G156D, A200T, G202S, ΔG202-E219, G214R, P215L, P215S, ΔP215-G222, D217N, E219K, E219G, E219D, S226ins, L293P, F121L + E219K, and F121L + G222S.
(§2) The MICs of ceftazidime, ceftazidime/avibactam, ceftolozane/tazobactam, cefepime, and cefiderocol were determined in triplicate, for all isolates, by reference broth microdilution assays. Avibactam and tazobactam were fixed at 4 mg/L. All assays were performed using cation-adjusted Mueller-Hinton broth (CAMHB), except for cefiderocol, which was determined in all cases using iron-depleted CAMHB, prepared according to CLSI M100 guidelines ([40]). EUCAST v.15.0 clinical breakpoints and guidelines (http://www.eucast.org/clinical_breakpoints/) were used for reference purposes. Reference strains Escherichia coli ATCC 25922, Klebsiella pneumoniae ATCC 700603, and P. aeruginosa ATCC 27853 were used as controls.

PAO1 + blaPDC D217N = test: MIC, broth microdilution; assay type: cell-based; conditions: Pseudomonas aeruginosa
From the text: as §1, §2

PAO1 + blaPDC F121L = test: MIC, broth microdilution; assay type: cell-based; conditions: Pseudomonas aeruginosa
From the text: as §1, §2

PAO1 + blaPDC G202S = test: MIC, broth microdilution; assay type: cell-based; conditions: Pseudomonas aeruginosa
From the text: as §1, §2

PAO1 + blaPDC L293P = test: MIC, broth microdilution; assay type: cell-based; conditions: Pseudomonas aeruginosa
From the text: as §1, §2

PAO1 + blaPDC P153L = test: MIC, broth microdilution; assay type: cell-based; conditions: Pseudomonas aeruginosa
From the text: as §1, §2

PAO1 + blaPDC S226ins = test: MIC, broth microdilution; assay type: cell-based; conditions: Pseudomonas aeruginosa, avibactam and tazobactam fixed at 4 mg/L, FDC in iron-depleted CAMHB
From the text: as §1, §2

[1] = tested on: PAO1 + blaPDC F121L + G220S; test: MIC, broth microdilution; assay type: cell-based; conditions: Pseudomonas aeruginosa
[2] = tested on: PAO ΔpiuC producing PDC A200T; test: Cefiderocol MIC, iron uptake-deficient host; assay type: cell-based; conditions: Pseudomonas aeruginosa
From the text: as §1, §2

[3] = tested on: PAO ΔpiuC producing PDC D217N; test: Cefiderocol MIC, iron uptake-deficient host; assay type: cell-based; conditions: Pseudomonas aeruginosa
From the text: as §1, §2

[4] = tested on: PAO ΔpiuC producing PDC E219D; test: Cefiderocol MIC, iron uptake-deficient host; assay type: cell-based; conditions: Pseudomonas aeruginosa
From the text: as §1, §2

[5] = tested on: PAO ΔpiuC producing PDC E219G; test: Cefiderocol MIC, iron uptake-deficient host; assay type: cell-based; conditions: Pseudomonas aeruginosa
From the text: as §1, §2

[6] = tested on: PAO ΔpiuC producing PDC E219K; test: Cefiderocol MIC, iron uptake-deficient host; assay type: cell-based; conditions: Pseudomonas aeruginosa
From the text: as §1, §2

[7] = tested on: PAO ΔpiuC producing PDC F121L + E219K; test: Cefiderocol MIC, iron uptake-deficient host; assay type: cell-based; conditions: Pseudomonas aeruginosa
From the text: as §1, §2

[8] = tested on: PAO ΔpiuC producing PDC F121L + G220S; test: Cefiderocol MIC, iron uptake-deficient host; assay type: cell-based; conditions: Pseudomonas aeruginosa
From the text: as §1, §2

[9] = tested on: PAO ΔpiuC producing PDC F121L; test: Cefiderocol MIC, iron uptake-deficient host; assay type: cell-based; conditions: Pseudomonas aeruginosa
From the text: as §1, §2

[10] = tested on: PAO ΔpiuC producing PDC G156D; test: Cefiderocol MIC, iron uptake-deficient host; assay type: cell-based; conditions: Pseudomonas aeruginosa
From the text: as §1, §2

[11] = tested on: PAO ΔpiuC producing PDC G202S; test: Cefiderocol MIC, iron uptake-deficient host; assay type: cell-based; conditions: Pseudomonas aeruginosa
From the text: as §1, §2

[12] = tested on: PAO ΔpiuC producing PDC G214R; test: Cefiderocol MIC, iron uptake-deficient host; assay type: cell-based; conditions: Pseudomonas aeruginosa
From the text: as §1, §2

[13] = tested on: PAO ΔpiuC producing PDC L293P; test: Cefiderocol MIC, iron uptake-deficient host; assay type: cell-based; conditions: Pseudomonas aeruginosa
From the text: as §1, §2

[14] = tested on: PAO ΔpiuC producing PDC P153L; test: Cefiderocol MIC, iron uptake-deficient host; assay type: cell-based; conditions: Pseudomonas aeruginosa
From the text: as §1, §2

[15] = tested on: PAO ΔpiuC producing PDC P215L; test: Cefiderocol MIC, iron uptake-deficient host; assay type: cell-based; conditions: Pseudomonas aeruginosa
From the text: as §1, §2

[16] = tested on: PAO ΔpiuC producing PDC P215S; test: Cefiderocol MIC, iron uptake-deficient host; assay type: cell-based; conditions: Pseudomonas aeruginosa
From the text: as §1, §2

[17] = tested on: PAO ΔpiuC producing PDC S226ins; test: Cefiderocol MIC, iron uptake-deficient host; assay type: cell-based; conditions: Pseudomonas aeruginosa
From the text: as §1, §2

[18] = tested on: PAO ΔpiuC producing PDC T70I; test: Cefiderocol MIC, iron uptake-deficient host; assay type: cell-based; conditions: Pseudomonas aeruginosa
From the text: as §1, §2

[19] = tested on: PAO ΔpiuC producing PDC ∆G202-E219; test: Cefiderocol MIC, iron uptake-deficient host; assay type: cell-based; conditions: Pseudomonas aeruginosa
From the text: as §1, §2

[20] = tested on: PAO ΔpiuC producing PDC ∆P215-G222; test: Cefiderocol MIC, iron uptake-deficient host; assay type: cell-based; conditions: Pseudomonas aeruginosa
From the text: as §1, §2

[21] = tested on: PAO ΔpiuC producing PDC-1 (WT); test: Cefiderocol MIC, iron uptake-deficient host; assay type: cell-based; conditions: Pseudomonas aeruginosa
From the text: as §1, §2

PAO ΔpiuC = test: Cefiderocol MIC, iron uptake-deficient host; assay type: cell-based; conditions: Pseudomonas aeruginosa
From the text: as §1, §2

[22] = tested on: PAO ΔpiuC producing the ∆P215-G222, E219K, F121L + E219K, and L293P variants; test: MIC, group of variants in PAO ΔpiuC; assay type: cell-based; conditions: Pseudomonas aeruginosa
From the text: as §1
as §2, with “Reference strains Escherichia coli ATCC 25922, Klebsiella pneumoniae ATCC 700603, and P. aeruginosa ATCC 27853 were used as controls.” left out

[23] = tested on: P. aeruginosa isolates overproducing PDC variants; conditions: clinical strains, values generally remain below; cited from earlier work
PDC-1 (WT) = PDC-1 (WT) (Pseudomonas aeruginosa, UniProt P24735); test: Steady-state kinetics of purified β-lactamase
PDC L293P = PDC L293P (Pseudomonas aeruginosa, UniProt P24735, L320P); test: Steady-state kinetics of purified β-lactamase; conditions: for kcat: direct hydrolysis at substrate concentration at least three times the Km

CC(C)(O/N=C(\C(=O)N[C@@H]1C(=O)N2C(C(=O)[O-])=C(C[N+]3(CCNC(=O)c4ccc(O)c(O)c4Cl)CCCC3)CS[C@H]12)c1csc(N)n1)C(=O)O [FDC, cefiderocol]
MIC (PAO1 + blaPDC A200T): 0.5 µg/mL (≈ 0.665 µM) | MIC (PAO1 + blaPDC D217N): 0.5 µg/mL (≈ 0.665 µM) | MIC (PAO1 + blaPDC F121L): 0.5 µg/mL (≈ 0.665 µM) | MIC (PAO1 + blaPDC G202S): 0.5 µg/mL (≈ 0.665 µM) | MIC (PAO1 + blaPDC L293P): 4 µg/mL (≈ 5.32 µM) | MIC (PAO1 + blaPDC P153L): 0.5 µg/mL (≈ 0.665 µM) | MIC (PAO1 + blaPDC S226ins): 0.5 µg/mL | MIC [1]: 0.25 µg/mL (≈ 0.332 µM) | MIC [2]: 8 µg/mL (≈ 10.6 µM) | MIC [3]: 8 µg/mL (≈ 10.6 µM) | MIC [4]: 8 µg/mL (≈ 10.6 µM) | MIC [5]: 8 µg/mL (≈ 10.6 µM) | MIC [6]: 32 µg/mL (≈ 42.5 µM) | MIC [7]: 64 µg/mL (≈ 85.1 µM) | MIC [8]: 8 µg/mL (≈ 10.6 µM) | MIC [9]: 8 µg/mL (≈ 10.6 µM) | MIC [10]: 8 µg/mL (≈ 10.6 µM) | MIC [11]: 8 µg/mL (≈ 10.6 µM) | MIC [12]: 16 µg/mL (≈ 21.3 µM) | MIC [13]: 32 µg/mL (≈ 42.5 µM) | MIC [14]: 8 µg/mL (≈ 10.6 µM) | MIC [15]: 8 µg/mL (≈ 10.6 µM) | MIC [16]: 8 µg/mL (≈ 10.6 µM) | MIC [17]: 8 µg/mL (≈ 10.6 µM) | MIC [18]: 8 µg/mL (≈ 10.6 µM) | MIC [19]: 8 µg/mL (≈ 10.6 µM) | MIC [20]: 32 µg/mL (≈ 42.5 µM) | MIC [21]: 4 µg/mL (≈ 5.32 µM) | MIC (PAO ΔpiuC): 2 µg/mL (≈ 2.66 µM) | MIC [22]: 32 to 64 µg/mL (≈ 42.5 to 85.1 µM) | MIC [23]: below 2 mg/L | kcat (PDC-1 (WT); PDC-1 (WT), direct hydrolysis at substrate concentration at least three times the Km, 10 mM PBS, pH 7.4, room temperature): 0.0036 s⁻¹ | Ratio (PDC-1 (WT); kcat/Km relative to PDC-1 (reference = 1)): 1 | improvement in substrate binding affinity (Km decrease) (PDC L293P; PDC L293P relative to PDC-1): ≈ 32 fold | Km (PDC L293P; PDC L293P, antibiotics: determined as Ki app with nitrocefin as reporter substrate, 10 mM PBS, pH 7.4, room temperature): 2.69 ± 0.1 µM | kcat (PDC L293P; PDC L293P, 10 mM PBS, pH 7.4, room temperature, listed as Cefiderocol): 0.0036 ± 0.0001 s⁻¹ | kcat (PDC L293P; PDC L293P, 10 mM PBS, pH 7.4, room temperature, listed as cefiderocol): 0.0036 s⁻¹ | Ratio for PDC L293P/PDC-1 (PDC L293P; ratio of kcat/Km (fold change in catalytic efficiency)): 33.75
